Experiments:
[1] = diabetic animals (streptozotocin-induced for sunitinib and lapatinib, alloxan-induced rabbits for erlotinib); cited from earlier work
[2] = tested on: patients; settings: multiple administration of the TKI; cited from earlier work
[3] = Effect of a single sorafenib dose on blood glucose level (glycaemia); type: in vivo, Wistar-strain rats; settings: control group (healthy rats), single oral sorafenib 100 mg/kg
Method: (§1) DG rats were fed a high-fat diet (Labofeed B, 60% fat; Morawski, Poland) for a period of 4 weeks to induce insulin resistance. After 2 weeks of dietary manipulation the animals were intraperitoneally injected with STZ (35 mg/kg body weight in 1000 μL of sterile citrate buffer, pH 4.2). Citrate buffer was injected as a vehicle in HG. The high-fat diet was continued for subsequent 2 weeks in the DG. The rats in the HG were fed with standard diet (Labofeed B, 8% fat) and water ad libitum. The rats with the blood glucose level ≥ 250 mg/dL were considered diabetic and qualified for this study. The percentage reduction of the glucose levels in the rats was calculated using the following formula: %Reductionglucose=(V0-Vt)·100/V0, where V0 glucose concentration at baseline and Vt glucose concentration at the time of maximum reduction.
(§2) After injecting streptozotocin 10% glucose solution was additionally administered for 24 h to prevent hypoglycaemia. […] The drug was dissolved in 1 mL 10% DMSO and administered orally by means of a gastric feeding tube. 0.1 mL blood samples were collected from rats by cutting a piece of their tails. The samples were collected at the following time points: 0, 0.5, 1, 1.5, 2, 3, 4, 5, 6, 7, 8, 10, 12, 24, 30, 48, 72, 96 h. Each time on blood collection glycaemia was measured.

[4] = tested on: streptozotocin-induced diabetic rats; experiment: as above; type: in vivo, Wistar-strain rats; settings: DG group (diabetic rats), single oral sorafenib 100 mg/kg
Method: as §1, §2

[5] = Plasma pharmacokinetics of sorafenib and sorafenib N-oxide after single oral sorafenib in diabetic and healthy rats (HPLC-UV, non-compartmental analysis); type: in vivo, Wistar-strain rats; settings: single oral sorafenib 100 mg/kg
Method: The experimental protocol for this study was reviewed and approved by the Local Ethics Committee. All procedures were performed in accordance with European Union regulations concerning the handling and use of laboratory animals. The study was conducted following the principles of the 3Rs (Replacement, Reduction and Refinement). Adult male Wistar-strain rats (weight 400–445 g) were used in the study. The animals were maintained under standard breeding conditions with a 12 h light–12 h dark cycle at constant room temperature (23 ± 2 °C), relative humidity (55 ± 10%) and given ad libitum access to feed and water. After acclimatisation the rats were randomly assigned into two groups: the diabetic group (DG) (n = 8) and the healthy group (HG) (n = 8).
as §1, §2
The validation was performed according to the guidelines of the European Medicines Agency (EMA) concerning validation of bioanalytical methods. Chromatographic analysis was conducted on a Alliance® system with 2695 Separation Module and a Dual Lambda (λ) absorbance detector (Waters Corporation®, USA). Data acquisition was performed using Empower software v. 1154. Separation was carried out on Symmetry® C8 column (250 mm × 4.6 mm, 5.0 µm particle size, Waters Corporation®, USA). The column temperature was maintained at 25 °C. The mobile phase consisted of ammonium acetate 0.1 M pH = 3.4 (adjusted with glacial acetic acid) (solvent A) and acetonitrile (solvent B). The following gradient was used: the percentage A was decreased from 60 to 29%, while at the same time over 21 min percentage B increased linearly from 40 to 71%. The UV detection wavelength was set at 265 nm, and the injection volume was 20 µL. The volume of the analyzed rat plasma was 25 µL. The samples were determined using liquid–liquid extraction.
The maximum plasma concentration (Cmax) and the time to reach the maximum plasma concentration (tmax) were obtained directly from the concentration—time data. The elimination rate constant (kel) was estimated from the slope of the terminal linear segment of the log mean concentration-time plot using the automatic best-fitting option in WinNonlin 8.1. The elimination half-life (t1/2kel) was calculated from ln2/kel. The area under the concentration-time curve from zero to the time of the last concentration measured (AUC0−t) was calculated by a linear trapezoidal rule and the residual area under the curve (AUCres) was estimated by extrapolation from the last concentration measured (Clast) to infinity using Clast/kel ratio. The area under curve from zero to infinity (AUC0−∞) was computed as a sum of AUC0−t and AUCres.

[6] = cited from earlier work
[7] = increase in diabetic versus healthy rats

Row | Compound | Cmax in diabetic animals [1] | total exposure in diabetic animals [1] | AUC0−t higher in the DG when compared to the HG [5, 7] | AUC0−∞ higher in the DG when compared to the HG [5, 7] | Cmax higher in the DG when compared to the HG [5, 7] | also measured
1 | C#Cc1cccc(Nc2ncnc3cc(OCCOC)c(OCCOC)cc23)c1 [erlotinib] | significantly increased | significantly increased | – | – | – | –
2 | CS(=O)(=O)CCNCc1ccc(-c2ccc3ncnc(Nc4ccc(OCc5cccc(F)c5)c(Cl)c4)c3c2)o1 [lapatinib] | significantly increased | significantly increased | – | – | – | –
3 | CNC(=O)c1cc(Oc2ccc(NC(=O)Nc3ccc(Cl)c(C(F)(F)F)c3)cc2)ccn1 [Sorafenib] | – | – | 66.4% | 56.0% | 88.7% | effect on blood glucose after multiple administration [2]: hypoglycaemic effect; glucose levels [3]: did not decrease; time of maximum reduction of glycaemia after the sorafenib administration [4]: 1.5 to 11 h; maximum reduction of glycaemia ([4]; (V0-Vt)·100/V0): 11.2–50.8%; Cl/F decreased in diabetic animals ([5]; decrease in diabetic versus healthy rats): 40%
4 | CCN(CC)CCNC(=O)c1c(C)[nH]c(/C=C2\C(=O)Nc3ccc(F)cc32)c1C [sunitinib] | significantly increased | significantly increased | – | – | – | –
5 | CNC(=O)c1cc(Oc2ccc(NC(=O)Nc3ccc(Cl)c(C(F)(F)F)c3)cc2)cc[n+]1[O-] [Sorafenib N-oxide, sorafenib N-oxide] | – | – | 112.55% | 91.87% | 119.57% | share of circulating substances at steady state [6]: 9–16%; AUMC0-t increase in the DG [5, 7]: 134.31%; AUMC0-∞ increase in the DG [5, 7]: 85.33%
